Here are results for 3 molecules from patent publication US6835754B2, “Use of aryl nitrone compounds in methods for treating neuropathic pain” (Renovis, Inc., priority 2001, dated 2004).

Experiment [1] relates to Rats, Type II collagen assay. In words: Hargreaves test (withdrawal latency to heat) in Type II collagen assay. In kind it is in vivo. The following applies: rats Day 20 of Type II collagen assay. How it is done:
The compound of Example 20 was further tested in a Hargreaves test, another accepted model for neuropathic pain.
Rats were tested on Day 20 in Type II collagen assay. […] Two hours after the 1st dose of drug on Day 20, animals were placed on a Hargreaves apparatus glass table. A high intensity light was placed under the one hind paw and illuminated, thus creating heat. At the same time, a clock was started. The light turned off, and the clock simultaneously stopped when the animal removed the paw. The time the rat is able to withstand the hear is considered withdrawal latency.

Experiment [2] has as its system male Swiss Webster mice, phenylquinone-induced writhing. Kind of experiment: Phenylquinone (PQ) writhing assay, % inhibition (Swiss Webster mice). The experiment is classed as in vivo. The following applies: Mus musculus; 30 mg/kg orally in 1% methyl cellulose, 1 hour before PQ 2 mg/kg ip; read-out: % Inhibition of Writhing Response. How it is done: Test compounds were prepared as a suspension in 1% methyl cellulose and dosed orally at a dose of 30 mg/kg to male Swiss Webster mice weighing between 15 and 25 g with 10 mice per group. Test compounds was given 1 hour before the injection of phenylquinone. Phenylquinone (Sigma) was injected intraperitoneally at a dose of 2 mg/kg. After a 5 minute acclimation period, the number of writhes was counted for a 5 minute observation period for each mouse. The total number of writhes for each test compound was compared with a vehicle group. Results were expressed as % inhibition compared to the vehicle treated group means (Table VII).
In related experiment, a dose response relationship was established for the compound of Example 1 using the same experimental protocl as above. […] This is shown graphically in FIG. 2.

Experiment [3] deals with Chronic constriction injury (CCI) rats. In words: Bennett chronic constriction injury (CCI) mononeuropathy, cold allodynia assay. In kind it is in vivo, Sparague Dawley rats. The conditions noted are these: 1 hr post-dose. How it is done: The peripheral mononeuropathy was induced by loose ligation of the sciatic nerve in anaesthetized rats. Ten days later, the nociceptive threshold was evaluated. The test compound is administered orally 1 hour prior to pain measurement. For comparison, a predose threshold was determined and a control experiment using 1% methyl cellulose was run. […] Animals were again tested 1-2 hrs post-dose. Predose and postdose average scores are determined.
In a related experiment a dose-response relationship for the compound of Example 20 was determined using the same experimental protocol. […] Animals were again tested 1 hr post-dose.

Experiment [4] concerns ICR derived male mice, phenylquinone-induced writhing. Kind of experiment: Phenylquinone (PQ) Writhing assay, number of writhes (MDS Panlabs, ICR mice). The following applies: for # Writhes (X + SEM): per os, 60 min before PQ 2 mg/kg ip, vehicle 20.8 ± 0.7, **P<0.01. In kind it is in vivo. How it is done: The compounds of Example 20 and Example 16 administered orally at doses of 10, 30 and 100 mg/kg. Vehicle of 2% Tween 80 in distilled water was used.
In this study, ICR derived male mice provided by animal breeding center of MDS Panlabs Taiwan, Ltd. were used. Space allocation for 10 animals was 45×23×15 cm. Mice were housed in APEC^R (Allentown Gaging, Allentown, N.J. 08501, U.S.A.) cages in a positive pressure isolation (NuAire^R, Mode: Nu-605, airflow velocity 50±5 ft/min, HEPA Filter) and maintained in a controlled temperature (22°-24° C.) and humidity (60%-80%) environment with 12 hour light dark cycles for at least one week in MDS Panlabs Taiwan laboratory prior to be used. Free access to standard lab chow for mice (Fwusow Industry Co., Limited, Taiwan) and tap water was granted. All aspects of this work including housing, experimentation and disposal of animals were performed in general accordance with the International Guiding Principles for Biomedical Research Involving Animals (CIOMS Publication No. ISBN 92 90360194, 1985).
The method of Siegmund, E. et al., Proc. Soc. Exp. Biol. Med. 95: 729-731, 1957, “A method for evaluating both non-narcotic and narcotic analgesics” was used. One hour after vehicle or compound administration, the number of writhes was recorded for each mouse in groups of 10 animals during a 5 to 10 minute period following 2 mg/kg. 1.p. of phenylquinone.
Groups of 10 male ICR mice weighing 22±2 gm were employed. Three doses (10, 30 and 100 mg/kg) of test substances suspended in a vehicle of 2% Tween 80 were administered per os. The control group received vehicle alone. […] The mean±SEM value of writhing number for each treatment group was then calculated and Dunnett's test was applied for comparison between vehicle and treated groups. Differences were considered significant when P<0.01.

Experiment [5] has as its system male Swiss Webster mice, phenylquinone-induced writhing. In words: Phenylquinone (PQ) writhing assay, % inhibition (Swiss Webster mice). In kind it is in vivo. The conditions noted are these: Mus musculus, standard, read-out: % Inhibition of Writhing Response.

Entries after “also recorded” stand apart in the source; their conditions may differ.

For the molecule `CC(C)(C)c1cc(C=[N+]([O-])C(C)(C)C)cc(C(C)(C)C)c1O` [Example 20, α-(4-hydroxy-3,5-di-tert-butylphenyl)-N-tert-butylnitrone], it took a dose of 6.25 mg/kg to reach the 50% effect level in experiment [1] (Rattus norvegicus, po, two hours after dose) (ED50). In addition, the “activity in Hargreaves test (withdrawal latency)” value in experiment [1] (doses of 10-100 mg/kg, FIG. 5) was “Significant activity; also recorded: does exhibit activity”. Also, the inhibition at 30 mg/kg in experiment [2] came out at 62%. Also, the “postdose latency score over vehicle, cold allodynia” value is on record as “significant postdose latency score over vehicle” in experiment [3] (30 mg/kg p.o., p<0.05 vs. vehicle postdose) and “significant postdose latency score over vehicle” in experiment [3] (100 mg/kg p.o., p<0.01 vs. vehicle postdose). Moreover, the “latency in the cold allodynia assay” value in experiment [3] (various doses (10, 30, 100 mg/kg, p.o.), FIG. 4) is recorded as “increased latency”. The “analgesia relative to vehicle control group (PQ writhing)” value in experiment [4] (100, 30 and 10 mg/kg orally, P<0.01 for all 3 doses, Dunnett's test) is recorded as “significant”. Besides, the “# Writhes (X + SEM)” value in experiment [4] (Dose 30 mg/kg) is on record as 0.9 ± 0.5**; in experiment [4] (Dose 10 ml/kg as printed) it was 3.1 ± 1.4**; in experiment [4] (Dose 100 ml/kg as printed) it was 0.3 ± 0.2**.
As for `COc1ccc2c(c1)c(CC(=O)O)c(C)n2C(=O)c1ccc(Cl)cc1` [Indomethacin], the inhibition at 3 mg/kg in experiment [5] (3 mg/kg) stood at 93%.
In the case of `C[C@@H]1C[C@H]2[C@@H]3CCC4=CC(=O)C=C[C@]4(C)[C@@]3(F)[C@@H](O)C[C@]2(C)[C@@]1(O)C(=O)CO` [Dexamethasone], the inhibition at 1 mg/kg in experiment [5] (1 mg/kg) stood at 62%.
